Data on 87 compounds can be found in a melting point compilation (Tetko et al.; mined from patent text by program, amines drawn as free bases though some values may be those of a salt).

Structures are written as SMILES.

On to `COc1cc(C)nc(NC(=O)NS(=O)(=O)c2cccc(NC(=O)OC(C)C)c2)n1`, for which the melting point – broadly, the temperature, or range, at which the solid turns liquid – lay within 173 to 180 °C.

With `c1ccc(C2=NNC(c3ccccc3)C2)cc1` (configuration not stated), the melting point is 194 to 199 °C.

Turning to `CC(C)(C)OCC1CN(c2ccc3cc(O)ccc3c2)C(=O)O1` (configuration not stated), the melting point lay in the range of 177 to 178 °C.

Take `C=CCn1c(=O)[nH]c(=O)n(-c2ccccc2)c1=O`: the melting point was in the range of 63 to 65 °C.

Compound `CC(C)(C)OC(=O)N1CCN(C(=O)OC(C)(C)C)C(C(O)(Cc2ccccc2)Cc2ccccc2)C1` (configuration not stated) had a melting point of 150 °C.

The compound `CCCCNC(=O)NS(=O)(=O)c1ccc(CCNC(=O)N2Cc3c(Cl)cc(Cl)cc3C2=O)cc1` yielded a melting point of 190 to 192 °C.

As for `O=c1c2c(O)c(O)ccc2c2cc(O)c(O)cc2n1Cc1ccc([N+](=O)[O-])cc1`, the melting point was 258 to 263 °C.

For the compound `CC(C)(C)C(=O)c1c[nH]c2ncc(Cl)nc12`, the melting point lay within 209 to 210 °C.

With `COC(=O)c1cccc2[nH]c(=O)c(C(=O)c3ccccc3)c(O)c12`, the melting point was in the range of 263 to 265 °C.

For `COc1ccc(C2=CC(=Nc3c(C)cc(C)cc3C)N(C)CN2C(C)=O)cc1OC`, the melting point was in the range of 173 to 175 °C.

The compound `CCCCc1nc2cc(Cl)cc(C(=O)O)c2n1Cc1ccc(-c2ccccc2-c2nnn[nH]2)cc1` came in with a melting point of 232 to 234 °C.

In turn, `CC(C)(C)OC(=O)NC12CCC1CN(c1c(F)cc3c(=O)c(C(=O)O)cn(C4CC4)c3c1Cl)C2` (configuration not stated) came in with a melting point of 200 to 202 °C.

The compound `CCc1cn(C2CC(OC(C)=O)C(CN(C)C(=O)Cc3ccccc3Br)O2)c(=O)[nH]c1=O` (configuration not stated) came in with a melting point of 170 °C.

The compound `COCn1cc(C2=C(c3cn(C)c4cc([N+](=O)[O-])ccc34)C(=O)NC2=O)c2ccccc21` had a melting point of over 250 °C.

Compound `O=C(c1ccc(O)cc1)c1c(-c2ccccc2)sc2cc(O)ccc12` showed a melting point of 245 to 246 °C.

As to `CCCOc1ccc(CC(=O)NCC(=O)O)cc1Cl`, the melting point was 110 to 112 °C.

Consider `CCCCCCCCc1ccc(C(=O)Cc2cccc(C#N)c2)cc1`, for which the melting point was in the range of 59 to 64 °C.

`CCCc1cc(C(=O)O)nn1C`: the melting point lay in the range of 120 to 122 °C.

For `CN1CCN(Cc2nnc3n2CC(=O)N(C)c2ccc(Cl)cc2-3)CC1`, the melting point is 228 to 230 °C.

`CC(=O)NC[C@H]1CN(c2ccc(N3CCC(O)(CNC4CC4)CC3)c(F)c2)C(=O)O1` returned a melting point of 160 to 162 °C.

Compound `O=C(CCCl)c1ccc2c3c1CCCC3C(=O)N2` (configuration not stated) registered a melting point of 175 to 178 °C.

Turning to `OCC1CC(n2c(SCc3ccccc3)nc3cc(Cl)c(Cl)cc32)C(O)C1O` (configuration not stated), the melting point fell in the range of 160 to 162 °C.

In the case of `C=CCN1CCN(c2cc3c(cc2F)c(=O)c(C(=O)O)cn3CC)CC1`, the melting point is 236 °C.

`COc1c(Cc2ccccc2)cc(C(=O)O)c2ccccc12` came in with a melting point of 146 to 148 °C.

In turn, `CC(=O)NC[C@H]1CN(c2ccc(N3C[C@H]4CN(C(C)=O)C[C@H]4C3)c(F)c2)C(=O)O1` displayed a melting point of 168 to 170 °C.

For the compound `CCOC(=O)c1nc2ccc(OC)cc2n(C)c1=O`, the melting point is 166 °C.

`Cc1cc(C2CCN(C(=O)OC(C)(C)C)CC2)cnc1COc1ccc(S(C)(=O)=O)cc1` came in with a melting point of 130 to 132 °C.

As to `CC1(Br)CN(C2SCN(c3cccc(OC(F)(F)F)c3)C2=O)C1=O` (configuration not stated), the melting point fell in the range of 111 to 113 °C.

The compound `C=CCc1c(O)ccc2c1ccc(=O)n2CC=C` had a melting point of 205 to 206 °C.

For the compound `CC(=O)N(C)C1CCc2c([nH]c3ccccc23)C1` (configuration not stated), the melting point is 215 to 216 °C.

On to `CC/C(=C(\c1ccc(/C=C/C(=O)O)cc1)c1ccc(OC(=O)c2ccno2)cc1)c1ccccc1`, for which the melting point fell in the range of 141 to 142 °C.

Consider `CNC(=O)c1cccc(F)c1Nc1nc(Nc2ccc3c(c2)N(C(C)=O)CC(=O)NC3)ncc1Cl`, for which the melting point is 179 to 185 °C.

For `COc1c(C(=S)NCCNC2CCCCCC2)cc(C)c2ccccc12`, the melting point lay within 140 to 141 °C.

For the compound `Clc1cccc(Oc2nnc(Cc3ccncc3)c3ccccc23)c1`, the melting point fell in the range of 143 to 145 °C.

The compound `N#Cc1cc(O)c(O)c(C#N)c1CCCCC(=O)O` had a melting point of 210 to 215 °C.

With `CC(C)c1ccc(Nc2nc(N)nc3c2-c2ccccc2C3)cc1`, the melting point lay in the range of 178 to 180 °C.

For the compound `CCOC(=O)C(NC(=O)Nc1ccccc1Cl)(c1nc(OC)cc(OC)n1)C(C)C` (configuration not stated), the melting point lay within 84 to 87 °C.

For the compound `COc1ccc(C2=NN(Cc3ccc(CC(=O)O)cc3)C(=O)[C@H]3CCCC[C@@H]23)cc1OC` (relative stereo), the melting point fell in the range of 164 to 166 °C.

In turn, `COC(=O)C1=C(C)NC(CC(=O)N2CCN(C3CCCC3)CC2)=C(C(=O)OC)C1c1c(Cl)cccc1Cl` (configuration not stated) came in with a melting point of 185 to 195 °C.

As to `COCn1ccnc1C(O)(c1ccccc1)c1cccc(C(F)(F)F)c1` (configuration not stated), the melting point was 152 to 154 °C.

As to `O=C(NC(=O)c1c(Cl)cccc1Cl)Nc1ccc(Sc2ccc(Cl)cc2)nc1`, the melting point was in the range of 160 to 162 °C.

Compound `COc1cc2c(cc1OCc1ccccc1)C(c1ccccc1)NCC2` (configuration not stated) registered a melting point of 123 to 125 °C.

On to `Nc1n[nH]c2ncnc(Nc3cccc(Cl)c3)c12`, for which the melting point is 232 to 234 °C.

The compound `CSc1ccc(Cc2cccc(-c3c(O)c4ccc(Cl)cc4[nH]c3=O)c2)cc1` gave a melting point of 296 to 297 °C.

Consider `Cc1noc(NS(=O)(=O)c2cc(Br)c(Cl)s2)c1Br`, for which the melting point was 143 to 145 °C.

The compound `CCOC(=O)CCC(=O)Oc1cc([N+](=O)[O-])cc([N+](=O)[O-])c1OC(=O)CCC(=O)OCC` returned a melting point of 60 to 63 °C.

Compound `CC(=O)c1ccc(-c2ccc(C#N)cc2)o1` had a melting point of 115 to 116 °C.

Regarding `CC(C)Oc1cc(-n2c(=O)[nH]c(CF)c(F)c2=O)c(F)cc1Cl`, the melting point lay in the range of 152 to 154 °C.

The compound `COC(=O)c1cc(-c2ccccc2)c(=O)n2ccc3ccc(Cl)cc3c12` came in with a melting point of 169 to 170 °C.

Take `CCOC(=O)CCCNc1cc(OC)c(OC)cc1C(C)=O`: the melting point was in the range of 74 to 76 °C.

On to `COCC(=O)Oc1cc(-n2c(=O)cc(C(F)(F)F)n(C)c2=O)c(F)cc1Cl`, for which the melting point fell in the range of 101 to 103 °C.

As to `COC(=O)c1ncc(-c2ccccc2)nc1N`, the melting point is 228 °C.

For `Cc1cc(C#Cc2cccc(-c3ccccc3)c2)ccn1`, the melting point lay in the range of 56 to 58 °C.

As to `CC(=O)N1C(C(=O)NCCO[N+](=O)[O-])CSC1c1ccccc1` (configuration not stated), the melting point was in the range of 103 to 105 °C.

For the compound `COC(=O)c1ccc2c(c1)ncn2Cc1ccccc1`, the melting point lay in the range of 156 to 162 °C.

In turn, `CCc1c(C2=NN=C(C)Cc3cc4[nH]c(=O)oc4cc32)sc2cccc(F)c12` gave a melting point of 297 to 299 °C.

The compound `Cc1noc(C)c1Cn1cc(N2C(=O)N(Cc3cc(O[Si](C)(C)C(C)(C)C)cc(O[Si](C)(C)C(C)(C)C)c3)C(C)(C)C2=O)cn1` gave a melting point of 213 to 215 °C.

`COc1ccc(-c2cnc3[nH]cc(C(=O)C(C)(C)C)c3n2)cc1` gave a melting point of 207 to 208 °C.

Regarding `C#CCOc1cc(OCC=C)ccc1-c1nc2cnccc2[nH]1`, the melting point was 195 °C.

`CCSC1C(=O)N=C(NC(=O)Nc2cccc(Cl)c2)N1C` (configuration not stated) came in with a melting point of 102 to 104 °C.

`O=C(CC1CSCCC1=O)c1ccccc1` (configuration not stated) showed a melting point of 102 to 104 °C.

With `CC1CCc2c(Cl)ccc3c(=O)c(C(=O)O)cn1c23` (configuration not stated), the melting point lay within 290 to 291 °C.

For `CCCCC[C@H]1CC[C@H](CC(=O)c2ccc(-c3ccc(CC)cc3F)cc2)CC1`, the melting point lay within 72 to 73 °C.

`NC(N)=NC(=O)Cn1c(Cl)ccc1Cl` had a melting point of 224 to 225 °C.

As to `CCOC(OCC)N1C(=O)C2(CCCCC2)c2cc(-c3cc(F)cc(C#N)c3)ccc21`, the melting point is 146 °C.

`Cc1c(-c2ccccc2)oc2c(C(=O)NCCO)cccc2c1=O`: the melting point fell in the range of 206 to 208 °C.

As to `CN(C)c1cncc(-c2nc(=O)c3ccccc3s2)n1`, the melting point lay within 248 to 249 °C.

Take `O=C(NCCCCCCOC(=O)N1CCC2(CCCC2)CC1)OC1CCN(C(=O)Oc2cccc(Oc3ccccc3)c2)CC1`: the melting point was 72 to 120 °C.

The compound `O=c1c2cccnc2c(-c2ccccc2)cn1Cc1ccccc1` had a melting point of 166 to 167 °C.

With `CCCc1ccccc1OCCCOc1ccc2c(=O)cc(C#N)oc2c1`, the melting point lay within 85 to 86 °C.

Regarding `COc1ccc(-c2nnc3c4ccccc4c(CNCCCC#N)nn23)cc1`, the melting point was in the range of 117 to 119 °C.

Turning to `CCOP(=O)(OCC)C(OS(=O)(=O)c1ccc(C)cc1)c1cccc([N+](=O)[O-])c1` (configuration not stated), the melting point was in the range of 90 to 92 °C.

Regarding `O=C1CCC(N2Cc3cc(CNC(=O)Nc4cccc(Cl)c4)ccc3C2=O)C(=O)N1` (configuration not stated), the melting point was 215 to 217 °C.

With `CCOC(=O)c1cn2c3c(c(F)c(F)cc3c1=O)OCC2CI` (configuration not stated), the melting point was 214 to 217 °C.

On to `CCCCS(=O)(=O)N(C(=O)OC(C)(C)C)c1cc(O)ccc1OCc1ccccc1`, for which the melting point was 131 to 133 °C.

On to `Cc1cc(N2C(=O)N(CCCCCN3C(=O)N(c4ccc(C#N)c(C)c4)C(=O)C3(C)C)C(C)(C)C2=O)ccc1C#N`, for which the melting point was in the range of 148 to 149 °C.

`NC(=O)c1sc2nccc(OC3CCCCCC3)c2c1N`: the melting point is 179 to 180 °C.

The compound `COC(=O)c1ccc(NC(=O)C(CC2CCCC2)c2ccc(N)cc2)nc1` (configuration not stated) returned a melting point of 65 to 68 °C.

With `CN(CC(=O)O)C(=O)c1cccc2c(Br)cccc12`, the melting point came to 205 °C.

Turning to `CCC(=O)Nc1cnn2cnc3ccccc3c12`, the melting point was in the range of 202 to 204 °C.

`Cc1cc(F)ccc1CCC(=O)O` yielded a melting point of 112 to 113 °C.

For `CCOC(=O)N(C)NC1=Nc2sc(CC)cc2C(c2ccccc2Cl)=NC1`, the melting point was in the range of 172 to 174 °C.

The compound `CC1=C(/C=C/C(C)=C/C=C/C(C)=C\C(=O)O)C(C)(C)C(O)CC1` (configuration not stated) had a melting point of 152 to 154 °C.

`C=C(NC(=O)OC(C)(C)C)C(=O)OCc1ccc([N+](=O)[O-])cc1` displayed a melting point of 94 to 95 °C.

On to `COc1cc2c(c(OC)c1/C=C/c1ccc(C(N)=O)cc1)C(C)(C)CCC2(C)C`, for which the melting point was 190 to 194 °C.

Turning to `CCOc1ccc2c(=O)c(C(=O)O)cn(CCO)c2n1`, the melting point was 220 °C.

For `COc1cc(C=O)ccc1OCCCCl`, the melting point was 53 to 55 °C.
